The source of these data is ChEMBL document CHEMBL1121624, “Synthesis, biological evaluation, and preliminary structure-activity considerations of a series of alkylphenols as intravenous anesthetic agents” (J Med Chem, 1980).

Data set [1] is filed under the species Mus musculus. The experiment in a line: Duration of analgesic action in mice was determined; B = brief, < 5 min. The format is functional, organism-based.
For data set [2], the species on record is Mus musculus. Nature of the data set: Hypnotic activity was measured as dose which causes loss of righting reflex for a minimum period of 30s in 50% of mice; Range is 20-40. It is filed as functional.
For data set [3], the species on record is Mus musculus. Nature of the data set: Speed of induction of analgesia in mice was determined; VS = very slow, > 15s. It is filed as functional, organism-based.
Data set [4] in a line: Acute toxicity measured as median lethal dose in mice. The format is organism-based. Conditions: mouse, in vivo.
The species named for data set [5] is Mus musculus. The experiment in a line: Hypnotic activity was measured as dose which causes loss of righting reflex for a minimum period of 30s in 50% of mice; Range is 20-30. It is filed as functional.
Data set [6] is filed under the species Mus musculus. Nature of the data set: Speed of induction of analgesia in mice was determined; I = immediate, <10 s. The format is functional, organism-based.
For data set [7], the species on record is Mus musculus. Nature of the data set: Duration of analgesic action in mice was determined; L = long, >10. The format is functional, organism-based.
For data set [8], the species on record is Mus musculus. Nature of the data set: Hypnotic activity was measured as dose which causes loss of righting reflex for a minimum period of 30s in 50% of mice; Range is 15-20. It is filed as functional.
The species entered for data set [9] is Mus musculus. Nature of the data set: Speed of induction of analgesia in mice was determined; S = slow, 10-15 s. The format is functional, organism-based.
Data set [10] can be described thus: Acute toxicity measured as median lethal dose in mice; Range is 120-140. Conditions: mouse, in vivo. The format is organism-based.
The species named for data set [11] is Mus musculus. Nature of the data set: Hypnotic activity was measured as dose which causes loss of righting reflex for a minimum period of 30s in 50% of mice; Range is 10-15. The format is functional.
The nature of data set [12]: Acute toxicity measured as median lethal dose in mice; Range is 60-80. It is filed as organism-based. Conditions: mouse, in vivo.
The species entered for data set [13] is Mus musculus. Nature of the data set: Hypnotic activity was measured as dose which causes loss of righting reflex for a minimum period of 30s in 50% of mice; Range is 20-25. It is filed as functional.
The nature of data set [14]: Acute toxicity measured as median lethal dose in mice; Range is 80-90. The settings on record: mouse, in vivo. It is filed as organism-based.
The species entered for data set [15] is Mus musculus. Nature of the data set: Hypnotic activity was measured as dose which causes loss of righting reflex for a minimum period of 30s in 50% of mice; Range is 40-60. It is filed as functional.
Data set [16] is filed under the species Mus musculus. The experiment in a line: Hypnotic activity was measured as dose which causes loss of righting reflex for a minimum period of 30s in 50% of mice; Range is 30-40. It is filed as functional.
For data set [17], the species on record is Mus musculus. The experiment in a line: Duration of analgesic action in mice was determined; M = moderate, 5-10 min. The format is functional, organism-based.
Data set [18] is filed under the species Mus musculus. Nature of the data set: Hypnotic activity was measured as dose which causes loss of righting reflex for a minimum period of 30s in 50% of mice. It is filed as functional.
For data set [19], the species on record is Mus musculus. Nature of the data set: Hypnotic activity was measured as dose which causes loss of righting reflex for a minimum period of 30s in 50% of mice; Range is 10-20. It is filed as functional.
Data set [20] in a line: Acute toxicity measured as median lethal dose in mice; Range is 100-120. The format is organism-based. Conditions: mouse, in vivo.
Data set [21] is filed under the species Mus musculus. Nature of the data set: Hypnotic activity was measured as dose which causes loss of righting reflex for a minimum period of 30s in 50% of mice; Range is 5-10. It is filed as functional.
Data set [22] can be described thus: Acute toxicity measured as median lethal dose in mice; Range is 40-60. It is filed as organism-based. The settings on record: mouse, in vivo.

Take `CCCc1cccc(CC)c1O`: the Duration of action result in the data set filed under Mus musculus [1] is “Brief duration”. This molecule registered an HD50 in the data set filed under Mus musculus [2] of 20 mg/kg. Further, the Speed of induction entry in the data set listed under Mus musculus [3] is reported as “Very slow”. The molecule also displayed an LD50 in [4] of 100 mg/kg.
For the molecule `CCCc1cccc(CCC)c1O`, the Duration of action entry in the data set listed under Mus musculus [1] was “Brief duration”. Further, the HD50 in the data set filed under Mus musculus [5] worked out at 20 mg/kg. For the same molecule, the Speed of induction result in the data set listed under Mus musculus [6] is “Immediate”. The molecule also showed an LD50 in [4] of 100 mg/kg.
With `CCCCCC(C)c1cccc(C)c1O` (centres undefined), the Duration of action result in the data set listed under Mus musculus [7] was “Long”. The molecule also registered an HD50 in the data set listed under Mus musculus [8] of 15 mg/kg. The Speed of induction result in the data set listed under Mus musculus [3] was “Very slow”. Besides, the LD50 in data set [4] was 100 mg/kg.
With `CCC(C)c1cccc(C2CC2)c1O` (centres undefined), the Duration of action result in the data set listed under Mus musculus [1] was “Brief duration”. The same molecule had an HD50 in the data set filed under Mus musculus [2] of 20 mg/kg. In addition, the Speed of induction result in the data set listed under Mus musculus [9] is listed as “Slow”. In data set [10], this molecule showed an LD50 of 120 mg/kg.
`Cc1cccc(C)c1O`: the Duration of action result in the data set listed under Mus musculus [1] is recorded as “Brief duration”. Besides, the HD50 in the data set filed under Mus musculus [5] was found to be 20 mg/kg. Also, the Speed of induction result in the data set listed under Mus musculus [6] is “Immediate induction”.
Consider `CNC1(c2ccccc2Cl)CCCCC1=O.Cl` (centres undefined) [KETAMINE HYDROCHLORIDE], for which, in the data set filed under Mus musculus [1], the Duration of action entry was “Brief duration”. The same molecule returned an HD50 in the data set listed under Mus musculus [11] of 10 mg/kg. Also, in the data set filed under Mus musculus [9], the Speed of induction entry is listed as “Slow”. For the same molecule, the 50% lethal dose (LD50) in [4] was determined as 60 mg/kg.
Regarding `CCc1cccc(C(C)C)c1O`, the Duration of action result in the data set filed under Mus musculus [1] is recorded as “Brief duration”. Further, the HD50 in the data set filed under Mus musculus [8] was determined as 15 mg/kg. For the same molecule, the Speed of induction entry in the data set listed under Mus musculus [6] is reported as “Immediate”. Besides, the LD50 in [12] worked out at 60 mg/kg.
In the data set listed under Mus musculus [13], `CCCC(C)C1(CC)C(=O)[N-]C(=S)NC1=O.[Na+]` (stereo in doubt; form 2) [THIOPENTAL SODIUM] showed an HD50 of 20 mg/kg. In data set [14], this molecule gave an LD50 of 80 mg/kg.
Consider `Cc1cccc(C(C)(C)C)c1O`, for which the Duration of action result in the data set filed under Mus musculus [1] was “Brief duration”. This molecule also showed an HD50 in the data set filed under Mus musculus [15] of 40 mg/kg. Also, the Speed of induction entry in the data set listed under Mus musculus [6] was “Immediate induction”. The molecule also showed an LD50 in [10] of 120 mg/kg.
For the molecule `CC(C)c1cccc(C2CC2)c1O`, the Duration of action result in the data set filed under Mus musculus [1] is “Brief duration”. Besides, in the data set listed under Mus musculus [5], the HD50 amounted to 20 mg/kg. In addition, the Speed of induction entry in the data set listed under Mus musculus [6] is recorded as “Immediate”. Further, in [10], the LD50 is 120 mg/kg.
In the data set filed under Mus musculus [16], `CCC(C)c1ccccc1O` (centres undefined) had an HD50 of 30 mg/kg.
Regarding `CCCCC(C)c1cccc(CCC)c1O` (centres undefined), in the data set filed under Mus musculus [17], the Duration of action entry is on record as “Moderate”. In addition, the HD50 in the data set filed under Mus musculus [18] was 50 mg/kg. Besides, the Speed of induction entry in the data set filed under Mus musculus [3] is reported as “Very slow”. In data set [4], this molecule displayed an LD50 of 140 mg/kg.
As for `Cc1ccc(C(C)C)c(O)c1` [THYMOL], the HD50 in the data set filed under Mus musculus [18] came to 30 mg/kg.
As to `CCCC(C)c1cccc(CC)c1O` (centres undefined), the Duration of action entry in the data set filed under Mus musculus [1] is recorded as “Brief duration”. Besides, the HD50 in the data set listed under Mus musculus [19] came to 10 mg/kg. In addition, the Speed of induction entry in the data set listed under Mus musculus [6] was “Immediate”. Also, the median lethal dose (LD50) in data set [20] turned out to be 100 mg/kg.
As for `CCC(C)c1ccc(O)c(C(C)CC)c1` (centres undefined), the HD50 in the data set filed under Mus musculus [5] came out at 20 mg/kg. For the same molecule, the LD50 in [4] is 120 mg/kg.
In the case of `CCCC(C)C1(CC)C(=O)NC(=S)NC1=O` (stereo in doubt; form 1), the Duration of action entry in the data set listed under Mus musculus [1] was “Brief duration”. In addition, in the data set listed under Mus musculus [6], the Speed of induction result is listed as “Immediate”.
For `CCCCc1cccc(C(C)CC)c1O` (centres undefined), the Duration of action entry in the data set filed under Mus musculus [17] is recorded as “Moderate”. Moreover, the HD50 in the data set filed under Mus musculus [5] is 20 mg/kg. For the same molecule, in the data set listed under Mus musculus [3], the Speed of induction result was “Very slow”. In data set [4], the LD50 stood at 120 mg/kg.
In the case of `C=CCC1(C(C)C#CCC)C(=O)N=C([O-])N(C)C1=O.[Na+]` (centres undefined) [METHOHEXITAL SODIUM], the HD50 in the data set listed under Mus musculus [21] amounted to 5 mg/kg. Moreover, the LD50 in [4] was found to be 30 mg/kg.
`Cc1ccc(O)c(C)c1`: the HD50 in the data set listed under Mus musculus [16] came to 30 mg/kg. This molecule gave an LD50 in [20] of 100 mg/kg.
On to `CC(C)c1ccc(O)cc1`, for which, in the data set listed under Mus musculus [16], the HD50 was 30 mg/kg. This molecule also registered an LD50 in [22] of 40 mg/kg.
Consider `CCc1cccc(CC)c1O`, for which the Duration of action entry in the data set listed under Mus musculus [1] was “Brief duration”. In addition, the HD50 in the data set filed under Mus musculus [8] came to 15 mg/kg. The Speed of induction result in the data set filed under Mus musculus [9] is “Slow induction”. Also, the LD50 in [4] came to 100 mg/kg.
Regarding `CC(C)(C)c1ccc(O)c(C(C)(C)C)c1`, the HD50 in the data set filed under Mus musculus [15] is 40 mg/kg. In addition, the LD50 in [20] worked out at 100 mg/kg.
As for `CCC(C)c1cccc(C(C)C)c1O` (centres undefined), in the data set listed under Mus musculus [1], the Duration of action result was “Brief duration”. In the data set filed under Mus musculus [21], this molecule registered an HD50 of 5 mg/kg. Besides, in the data set filed under Mus musculus [6], the Speed of induction entry is listed as “Immediate”. In data set [4], the LD50 came to 50 mg/kg.
With `Cc1ccc(O)c(C(C)(C)C)c1`, the HD50 in the data set listed under Mus musculus [18] was determined as 30 mg/kg.
Regarding `CCc1ccc(O)c(C(C)C)c1`, the HD50 in the data set listed under Mus musculus [18] amounted to 40 mg/kg. The molecule further had an LD50 in data set [4] of 120 mg/kg.
